Reference: ChEMBL document CHEMBL5380850, “Discovery of the First Raptor (Regulatory-Associated Protein of mTOR) Inhibitor as a New Type of Antiadipogenic Agent” (J Med Chem, 2023)
Calls of active or inactive are those of the source. The calls are words filed in the database; no cut-off is given here.

Key:
[1] = tested on: 3T3-L1; test: Anti-adipogenic activity against mouse 3T3-L1 cells assessed as decrease in triglyceride level at 1 uM by Oil Red O staining based spectroscopic analysis; type: functional; design: scale not given: the % may be the effect or the level left
[2] = target: mTORC1 (Mus musculus) (UniProt Q9JLN9); test: Inhibition of mTORC1 formation in mouse 3T3-L1 cells assessed as decrease in Raptor/mLST8 interaction at 10 uM incubated for 24 hrs by reciprocal co-immunoprecipitation assay; type: cell-based
[3] = tested on: 3T3-L1; test: Anti-adipogenic activity against mouse 3T3-L1 cells at lipogenesis stage assessed as decrease in triglyceride level at 1 uM and measured on 3 to 6 days by Oil Red O staining based spectroscopic analysis; type: functional, cell-based; details: time 3-6 day
[4] = target: mTORC1 (Mus musculus) (UniProt Q9JLN9); test: Inhibition of mTORC1 formation in siRNA mediated Raptor knockdown mouse 3T3-L1 cells assessed as decrease in phosphorylaed-S6K1 expression level at 10 uM incubated for 24 hrs by Western blot analysis; type: cell-based
[5] = tested on: Mus musculus; test: Anti-obesity activity in high fat diet-induced obese C57BL/6J mouse model assessed as change in daily food uptake at 40 mg/kg, ip administered every two days for 46 days; type: functional, organism-based; details: time 46.0 day
[6] = target: mTORC1 (Mus musculus) (UniProt Q9JLN9); test: Inhibition of mTORC1 formation in mouse 3T3-L1 cells assessed as mLST8 expression level at 10 uM incubated for 24 hrs by reciprocal co-immunoprecipitation assay; type: cell-based
[7] = tested on: 3T3-L1; test: Anti-adipogenic activity against mouse 3T3-L1 cells assessed as downregulation of C/EBPalpha mRNA expression level at 0.1 to 1 uM incubated for 24 hrs by RT-qPCR analysis; type: functional, cell-based; details: dose 0.1-1 µM
[8] = tested on: 3T3-L1; test: Anti-adipogenic activity against mouse 3T3-L1 cells assessed as downregulation of FAS protein expression level at 0.1 to 1 uM incubated for 6 days by Western blot analysis; type: functional, cell-based; details: dose 0.1-1 µM, time 6.0 day
[9] = tested on: Mus musculus; test: Anti-obesity activity in high fat diet-induced obese C57BL/6J mouse assessed as reduction in visceral fat content by measuring epididymis white adipose tissue weight at 40 mg/kg, ip administered every two days for 46 days; type: functional, organism-based; details: time 46.0 day
[10] = target: mTORC1 (Mus musculus) (UniProt Q9JLN9); test: Inhibition of mTORC1 formation in mouse 3T3-L1 cells assessed as increase in phosphorylated-4E-BP1 expression level at 10 uM incubated for 24 hrs by Western blot analysis; type: cell-based
[11] = target: mTORC1 (Mus musculus) (UniProt Q9JLN9); test: Inhibition of mTORC1 formation in mouse 3T3-L1 cells assessed as increase in 4E-BP1 expression level at 10 uM incubated for 24 hrs by Western blot analysis; type: cell-based
[12] = target: Serine/threonine-protein kinase mTOR (Mus musculus) (UniProt Q9JLN9); test: Inhibition of mTOR signalling in mouse 3T3-L1 cells assessed as upregulation of ATG5 expression level at 0.1 to 10 uM incubated for 24 hrs by Western blot analysis; type: cell-based; details: dose 0.1-10 µM
[13] = tested on: Mus musculus; test: Anti-obesity activity in high fat diet-induced obese C57BL/6J mouse model assessed as reduction in hepatic triglyceride level at 40 mg/kg, ip administered every two days for 46 days; type: functional, organism-based; details: time 46.0 day
[14] = tested on: 3T3-L1; test: Anti-adipogenic activity in SiRNA mediated Raptor knockdown mouse 3T3-L1 cells assessed as FAS expression level at 10 uM by Western blot analysis; type: functional, cell-based
[15] = tested on: 3T3-L1; test: Anti-adipogenic activity against mouse 3T3-L1 cells assessed as downregulation of ACC mRNA expression level at 0.1 to 1 uM incubated for 6 days by RT-qPCR analysis; type: functional, cell-based; details: dose 0.1-1 µM, time 6.0 day
[16] = target: Serine/threonine-protein kinase mTOR (Mus musculus) (UniProt Q9JLN9); test: Inhibition of mTOR signalling in mouse 3T3-L1 cells assessed as upregulation of ATG3 expression level at 0.1 to 10 uM incubated for 24 hrs by Western blot analysis; type: cell-based; details: dose 0.1-10 µM
[17] = tested on: Mus musculus; test: In vivo inhibition of mTOR signalling in high fat diet-induced obese C57BL/6J mouse model assessed as decrease in mTOR phosphorylation at S2481 in inguen white adipose tissue at 40 mg/kg, ip administered every two days for 46 days by Western blot analysis; type: functional, organism-based; details: time 46.0 day
[18] = tested on: Mus musculus; test: Anti-obesity activity in high fat diet-induced obese C57BL/6J mouse model assessed as decrease in brown adipocyte size at 40 mg/kg, ip administered every two days for 46 days by Hand E staining based microscopic analysis; type: functional, organism-based; details: time 46.0 day
[19] = target: mTORC1 (Mus musculus) (UniProt Q9JLN9); test: Inhibition of mTORC1 formation in mouse 3T3-L1 cells assessed as mTOR expression level at 10 uM incubated for 24 hrs by reciprocal co-immunoprecipitation assay; type: cell-based
[20] = tested on: 3T3-L1; test: Anti-adipogenic activity against mouse 3T3-L1 cells at terminal differentiation stage assessed as decrease in triglyceride level at 1 uM and measured on 6 to 9 days by Oil Red O staining based spectroscopic analysis; type: functional, cell-based; details: time 6-9 day
[21] = Cytotoxicity against mouse 3T3-L1 cells assessed as reduction in cell viability incubated for 24 hrs by MTT assay; type: toxicity, cell-based
[22] = target: Regulatory-associated protein of mTOR (Homo sapiens, UniProt Q8N122); test: Binding affinity to recombinant human Raptor and measured for 200 sec by SPR analysis
Regulatory-associated protein of mTOR, sequence (Q8N122 whole entry): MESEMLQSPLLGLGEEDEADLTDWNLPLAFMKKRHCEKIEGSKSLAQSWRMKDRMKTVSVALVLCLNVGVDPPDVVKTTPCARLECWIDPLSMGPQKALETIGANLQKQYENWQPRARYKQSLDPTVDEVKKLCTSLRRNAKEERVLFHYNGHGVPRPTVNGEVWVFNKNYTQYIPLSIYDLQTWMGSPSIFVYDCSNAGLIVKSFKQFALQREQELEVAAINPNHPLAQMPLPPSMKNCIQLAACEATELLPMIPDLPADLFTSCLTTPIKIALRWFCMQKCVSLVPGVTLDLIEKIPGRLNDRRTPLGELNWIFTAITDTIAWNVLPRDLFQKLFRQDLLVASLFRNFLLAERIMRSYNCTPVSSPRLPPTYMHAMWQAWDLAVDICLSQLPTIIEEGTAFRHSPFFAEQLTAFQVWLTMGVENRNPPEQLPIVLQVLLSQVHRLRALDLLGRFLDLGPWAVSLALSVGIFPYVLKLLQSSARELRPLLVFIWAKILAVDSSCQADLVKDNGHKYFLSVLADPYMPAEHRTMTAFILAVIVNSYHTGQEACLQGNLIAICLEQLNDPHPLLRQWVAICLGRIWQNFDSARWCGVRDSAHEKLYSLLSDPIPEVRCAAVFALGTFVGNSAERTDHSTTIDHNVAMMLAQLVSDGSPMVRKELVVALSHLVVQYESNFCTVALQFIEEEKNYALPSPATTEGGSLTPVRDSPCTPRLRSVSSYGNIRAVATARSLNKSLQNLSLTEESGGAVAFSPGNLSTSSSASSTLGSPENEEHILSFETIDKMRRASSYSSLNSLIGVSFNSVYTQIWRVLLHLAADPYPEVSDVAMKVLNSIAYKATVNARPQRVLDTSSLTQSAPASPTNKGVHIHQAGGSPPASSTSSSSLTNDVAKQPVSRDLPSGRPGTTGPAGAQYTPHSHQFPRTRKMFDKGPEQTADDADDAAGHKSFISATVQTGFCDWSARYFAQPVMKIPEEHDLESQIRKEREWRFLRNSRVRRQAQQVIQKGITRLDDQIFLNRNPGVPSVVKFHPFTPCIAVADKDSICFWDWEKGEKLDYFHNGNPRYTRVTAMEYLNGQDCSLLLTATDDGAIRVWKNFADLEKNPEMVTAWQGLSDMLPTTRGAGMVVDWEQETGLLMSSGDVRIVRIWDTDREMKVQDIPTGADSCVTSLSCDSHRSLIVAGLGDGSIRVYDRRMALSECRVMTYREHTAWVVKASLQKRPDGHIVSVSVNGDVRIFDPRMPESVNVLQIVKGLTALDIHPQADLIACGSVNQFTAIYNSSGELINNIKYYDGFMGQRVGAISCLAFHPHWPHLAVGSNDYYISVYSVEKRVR

[23] = target: mTORC1 (Mus musculus) (UniProt Q9JLN9); test: Inhibition of mTORC1 formation in mouse 3T3-L1 cells assessed as decrease in S6K1 expression level at 10 uM incubated for 24 hrs by Western blot analysis; type: cell-based
[24] = target: Regulatory-associated protein of mTOR (Mus musculus) (UniProt Q8K4Q0); test: Binding affinity to Raptor in mouse 3T3-L1 cells assessed thermal stabilization at 10 uM incubated 30 mins by […] analysis
Regulatory-associated protein of mTOR (Mus musculus), sequence (Q8K4Q0 whole entry, looked up): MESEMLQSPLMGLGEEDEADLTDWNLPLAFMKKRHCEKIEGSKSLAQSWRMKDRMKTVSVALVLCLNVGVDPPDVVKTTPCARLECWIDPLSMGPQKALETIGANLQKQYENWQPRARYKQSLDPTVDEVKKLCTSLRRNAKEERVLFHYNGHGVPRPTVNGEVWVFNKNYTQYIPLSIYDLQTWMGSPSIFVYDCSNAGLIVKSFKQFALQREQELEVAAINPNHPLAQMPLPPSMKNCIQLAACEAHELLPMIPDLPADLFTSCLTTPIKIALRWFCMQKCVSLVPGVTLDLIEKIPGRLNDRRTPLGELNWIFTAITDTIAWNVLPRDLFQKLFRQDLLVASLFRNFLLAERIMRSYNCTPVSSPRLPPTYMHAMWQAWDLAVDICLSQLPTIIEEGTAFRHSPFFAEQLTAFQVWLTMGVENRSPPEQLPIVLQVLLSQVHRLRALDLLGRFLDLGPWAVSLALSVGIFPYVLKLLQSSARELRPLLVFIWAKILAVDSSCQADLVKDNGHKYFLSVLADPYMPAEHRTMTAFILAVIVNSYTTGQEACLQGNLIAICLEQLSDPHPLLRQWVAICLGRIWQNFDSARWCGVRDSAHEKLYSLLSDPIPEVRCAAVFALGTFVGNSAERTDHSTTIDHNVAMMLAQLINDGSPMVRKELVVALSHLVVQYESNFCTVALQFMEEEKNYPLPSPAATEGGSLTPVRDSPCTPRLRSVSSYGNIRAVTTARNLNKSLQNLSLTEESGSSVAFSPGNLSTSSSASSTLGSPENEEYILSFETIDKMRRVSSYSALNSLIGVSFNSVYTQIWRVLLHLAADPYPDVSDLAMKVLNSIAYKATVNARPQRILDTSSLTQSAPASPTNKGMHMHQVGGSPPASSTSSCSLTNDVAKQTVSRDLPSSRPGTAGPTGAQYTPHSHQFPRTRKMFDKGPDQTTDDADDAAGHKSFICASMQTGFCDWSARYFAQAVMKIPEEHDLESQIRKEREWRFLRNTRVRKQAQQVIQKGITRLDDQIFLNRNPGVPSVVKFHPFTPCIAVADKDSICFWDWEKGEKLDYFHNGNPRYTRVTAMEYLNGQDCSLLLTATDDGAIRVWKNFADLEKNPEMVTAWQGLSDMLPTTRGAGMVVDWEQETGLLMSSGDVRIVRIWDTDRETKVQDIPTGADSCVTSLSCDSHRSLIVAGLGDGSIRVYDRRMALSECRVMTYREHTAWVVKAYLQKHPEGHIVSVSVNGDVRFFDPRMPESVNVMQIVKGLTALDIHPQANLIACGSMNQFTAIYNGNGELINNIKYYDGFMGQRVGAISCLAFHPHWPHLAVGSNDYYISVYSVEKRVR

[25] = target: Serine/threonine-protein kinase mTOR (Mus musculus) (UniProt Q9JLN9); test: Inhibition of mTOR signalling in mouse 3T3-L1 cells assessed as upregulation of LC3I expression level at 0.1 to 10 uM incubated for 24 hrs by Western blot analysis; type: cell-based; details: dose 0.1-10 µM
[26] = tested on: 3T3-L1; test: Anti-adipogenic activity against mouse 3T3-L1 cells assessed as decrease in triglyceride level at 0.01 to 10 uM by Oil Red O staining based microscopic analysis; type: functional, cell-based; details: dose 0.01-10 µM
[27] = tested on: 3T3-L1; test: Anti-adipogenic activity against mouse 3T3-L1 cells assessed as downregulation of PPARgamma mRNA expression level at 0.1 to 1 uM incubated for 24 hrs by RT-qPCR analysis; type: functional, cell-based; details: dose 0.1-1 µM
[28] = target: mTORC1 (Mus musculus) (UniProt Q9JLN9); test: Inhibition of mTORC1 formation in mouse 3T3-L1 cells assessed as Raptor expression level at 10 uM incubated for 24 hrs by reciprocal co-immunoprecipitation assay; type: cell-based
[29] = tested on: 3T3-L1; test: Anti-adipogenic activity against mouse 3T3-L1 cells assessed as downregulation of DGAT2 mRNA expression level at 0.1 to 1 uM incubated for 6 days by RT-qPCR analysis; type: functional, cell-based; details: dose 0.1-1 µM, time 6.0 day
[30] = tested on: 3T3-L1; test: Anti-adipogenic activity in SiRNA mediated Raptor knockdown mouse 3T3-L1 cells assessed as decrease in triglyceride level at 10 uM by Oil Red O staining based microscopic analysis; type: functional, cell-based
[31] = tested on: 3T3-L1; test: Anti-adipogenic activity in SiRNA mediated Raptor knockdown mouse 3T3-L1 cells assessed as PPARgamma expression level at 10 uM by Western blot analysis; type: functional, cell-based
[32] = tested on: 3T3-L1; test: Anti-adipogenic activity against mouse 3T3-L1 cells assessed as downregulation of PPARgamma protein expression level at 0.1 to 1 uM incubated for 24 hrs by Western blot analysis; type: functional, cell-based; details: dose 0.1-1 µM
[33] = target: mTORC1 (Mus musculus) (UniProt Q9JLN9); test: Inhibition of mTORC1 formation in mouse 3T3-L1 cells assessed as decrease in phosphorylated-S6K1 expression level at 10 uM incubated for 24 hrs by Western blot analysis; type: cell-based

For `C=C(C)[C@@]12OC3(c4ccccc4)O[C@@H]1[C@@H]1[C@H](O)[C@](Cl)(COC(=O)c4ccccc4)[C@@H](O)[C@]4(O)C(=O)C(C)=C[C@H]4[C@@]1(O3)[C@H](C)[C@H]2OC(C)=O`, the Activity [1] was >50%, the inhibition [2] was “inactive” and the Activity [3] was “inactive”. For the same compound, the inhibition [4] was “Active”, the Activity [5] was “inactive” and the inhibition [6] was “Active”. For the same compound, the Activity [7] was “Active”, the Activity [8] was “Active” and the Activity [9] was “Active”. The inhibition [10] was “Active”, the inhibition [11] was “Active” and the inhibition [12] was “Active”. For the same compound, the Activity [13] was “Active”, the Activity [14] was “Active” and the Activity [15] was “Active”. The inhibition [16] was “Active”, the inhibition [17] was “Active” and the Activity [18] was “Active”. For the same compound, the inhibition [19] was “Active”, the Activity [20] was “Active” and the IC50 at 24 h [21] was > 100 µM. For the same compound, the Kd [22] was 20.4 µM, the inhibition [23] was “Active” and the Activity [24] was “Active”. For the same compound, the inhibition [25] was “Active”, the Activity [26] was “Active” and the Activity [27] was “Active”. For the same compound, the inhibition [28] was “Active”, the Activity [29] was “Active” and the Activity [30] was “Active”. For the same compound, the Activity [31] was “Active”, the Activity [32] was “Active” and the inhibition [33] was “Active”.
